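Method: 48-hour compound exposure of cells in 96-well plates, five concentrations, linear interpolation of endpoints. GI50 is the concentration that inhibits growth by half.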 Activity calls are given as the source filed them. Rule as the data show it: active = GI50 up to about 1.1 µM and inactive = higher.
Experiments:
Assay in all cases: NCI tumour cell line growth inhibition, 48 h
[1] = system: KM-20L2
[2] = system: RXF 631
[3] = system: DMS-273
[4] = system: LXFL 529
[5] = system: DMS-114
[6] = system: SNB-78
[7] = system: M19-MEL
[8] = system: HOP-18
[9] = system: XF498

Row | Structure (SMILES) | GI50 [1] | GI50 [2] | GI50 [3] | GI50 [4] | GI50 [5] | GI50 [6] | GI50 [7] | GI50 [8] | GI50 [9]
1 | CN(C)CCNC(=O)c1cccc2ccc(-c3ccc(-c4ccccc4)cc3)nc12 | 1.98 µM (inactive) | 1.76 µM (inactive) | 1.69 µM (inactive) | 1.83 µM (inactive) | 1.7 µM (inactive) | 14 µM (inactive) | 1.81 µM (inactive) | 12.9 µM (inactive) | –
2 | O=C1C=CC=CC2CC=C[C@@H](O)C12 (stereo partly drawn) | 21 µM (inactive) | – | 22.6 µM (inactive) | 17.5 µM (inactive) | 18.1 µM (inactive) | 32.4 µM (inactive) | 16.8 µM (inactive) | – | –
3 | C=Cc1cncc(C#N)c1CCc1c(C#N)cncc1C=C | > 10 µM (inactive) | – | > 10 µM (inactive) | > 10 µM (inactive) | > 10 µM (inactive) | > 10 µM (inactive) | > 10 µM (inactive) | > 10 µM (inactive) | > 10 µM (inactive)
4 | CCc1nc2cc(/N=N/c3c(O)ccc4ccccc34)ccc2[nH]1 | 19.6 µM (inactive) | – | 17.1 µM (inactive) | 11.5 µM (inactive) | 17.3 µM (inactive) | 15.5 µM (inactive) | 18.9 µM (inactive) | – | –
5 | COc1cccc2c1[C@H]1OC(=O)NC1CCCCC2 (stereo partly drawn) | > 100 µM (inactive) | – | > 100 µM (inactive) | > 100 µM (inactive) | > 100 µM (inactive) | > 100 µM (inactive) | > 100 µM (inactive) | > 100 µM (inactive) | –
6 | CCN(CC)c1ccc(/N=C2/C=CC(=O)c3ncccc32)c(C)c1 | 13.5 µM (inactive) | 14.2 µM (inactive) | 8.3 µM (inactive) | 2.48 µM (inactive) | 3.9 µM (inactive) | 9.55 µM (inactive) | 10.4 µM (inactive) | 10.5 µM (inactive) | 2.02 µM (inactive)
7 | C/C(CCN(C)C)=N/O | 8.47 µM (inactive) | – | – | 0.346 µM (active) | 0.8 µM (active) | 15.8 µM (inactive) | 0.798 µM (active) | 0.4 µM (active) | 17.8 µM (inactive)
8 | COC(=O)NC(=O)c1cn(CCCOC(=O)CCCCCCCCC(=O)OCCCn2cc(C(=O)NC(=O)OC)c(=O)[nH]c2=O)c(=O)[nH]c1=O | > 100 µM (inactive) | 50.9 µM (inactive) | > 100 µM (inactive) | > 100 µM (inactive) | > 100 µM (inactive) | 78 µM (inactive) | > 100 µM (inactive) | > 100 µM (inactive) | 19.3 µM (inactive)
9 | CN(C(=O)C12C3C4C1C1C2C3C41C(O)C(C)(C)C)C(C)(C)C (stereo not drawn) | > 100 µM (inactive) | > 100 µM (inactive) | > 100 µM (inactive) | > 100 µM (inactive) | > 100 µM (inactive) | > 100 µM (inactive) | > 100 µM (inactive) | – | > 100 µM (inactive)
10 | O=c1c2cc(Br)cc(Br)c2[nH]c(=S)n1-c1ccccc1 | > 100 µM (inactive) | > 100 µM (inactive) | > 100 µM (inactive) | – | 56.2 µM (inactive) | > 100 µM (inactive) | > 100 µM (inactive) | 35.3 µM (inactive) | 21.4 µM (inactive)
11 | CCOC(=O)NC(=O)c1cn(CCCO)c(=O)[nH]c1=O | > 100 µM (inactive) | > 100 µM (inactive) | > 100 µM (inactive) | – | > 100 µM (inactive) | > 100 µM (inactive) | > 100 µM (inactive) | > 100 µM (inactive) | > 100 µM (inactive)
12 | CN(C)CCNC(=O)c1cccc2c(Nc3ccc(S(=O)(=O)N=C(N)N)cc3)c3ccccc3nc12 | 32.9 µM (inactive) | – | 6.59 µM (inactive) | 7.89 µM (inactive) | 2.34 µM (inactive) | – | 18.7 µM (inactive) | – | 19.3 µM (inactive)
13 | CN(C)CC1CCCC(CN(C)C)C1=NOC(=O)c1ccccc1 (stereo not drawn) | > 100 µM (inactive) | – | > 100 µM (inactive) | > 100 µM (inactive) | > 100 µM (inactive) | > 100 µM (inactive) | > 100 µM (inactive) | > 81.8 µM (inactive) | > 100 µM (inactive)
14 | COC(=O)C(=O)CC(=O)CCn1ncc(Cl)c(Cl)c1=O | 16.9 µM (inactive) | 8.55 µM (inactive) | 14.9 µM (inactive) | 10 µM (inactive) | 3.15 µM (inactive) | 20.5 µM (inactive) | 4.01 µM (inactive) | – | 29 µM (inactive)
15 | CC(C(=O)c1ccccc1)C1(O)C(=O)Nc2ccc(Cl)cc21 (stereo not drawn) | > 100 µM (inactive) | – | – | 72.3 µM (inactive) | 56.8 µM (inactive) | > 100 µM (inactive) | 16.7 µM (inactive) | 12.8 µM (inactive) | > 100 µM (inactive)
16 | CN(C)c1[se]nc2c1c(=O)n(C)c(=O)n2C | > 100 µM (inactive) | > 100 µM (inactive) | > 100 µM (inactive) | > 100 µM (inactive) | > 100 µM (inactive) | > 100 µM (inactive) | > 100 µM (inactive) | 19.4 µM (inactive) | > 100 µM (inactive)
17 | COc1ccc2c(CCNC(C)=O)c(C(C)=O)[nH]c2c1 | > 100 µM (inactive) | > 100 µM (inactive) | > 100 µM (inactive) | > 100 µM (inactive) | > 100 µM (inactive) | > 100 µM (inactive) | – | – | –
18 | COC(=O)C1C(=O)O[C@@H](c2ccc(OC)cc2)C1C(=O)OC (stereo partly drawn) | > 100 µM (inactive) | – | > 100 µM (inactive) | > 100 µM (inactive) | > 100 µM (inactive) | – | > 100 µM (inactive) | > 100 µM (inactive) | > 100 µM (inactive)
19 | CC1CCP(=O)(c2ccccc2)CC1 (stereo not drawn) | > 100 µM (inactive) | > 100 µM (inactive) | > 100 µM (inactive) | > 100 µM (inactive) | > 100 µM (inactive) | > 100 µM (inactive) | > 100 µM (inactive) | – | > 100 µM (inactive)
20 | O=C1Nc2ccccc2/C1=N/NC(=O)c1ccccc1O | > 100 µM (inactive) | – | – | 41.3 µM (inactive) | 43.4 µM (inactive) | 99.8 µM (inactive) | 53 µM (inactive) | 56 µM (inactive) | –
21 | CCOC(=O)N1C(=O)C2C3C=CC(C2C1=O)C1C2C(=O)N(C(=O)OCC)C(=O)C2C31 (stereo not drawn) | > 77.1 µM (inactive) | > 100 µM (inactive) | > 43.7 µM (inactive) | > 100 µM (inactive) | > 45.9 µM (inactive) | > 100 µM (inactive) | > 74.5 µM (inactive) | 43.4 µM (inactive) | > 100 µM (inactive)

Reference: ChEMBL document CHEMBL1201862, “PubChem BioAssay data set” (2004)
